Where a SMILES comes first, the peptide text is derived from it.
Experiments:
Candida albicans = assay type: cell-based; details: Candida albicans clinical lab isolate
Method: (§1) The biological activity of the peptides can be determined by standard methods known to those of skill in the art, such as a “minimal inhibitory concentration” (MIC) assay (see Wu and Hancock (1999) J. Biol Chem. 274:29-35 and Examples section). A MIC assay allows the determination of the lowest concentration of peptide that inhibits the multiplication and growth of mircoorganisms. Changes in the microorganism population are assessed by measuring the optical density (OD) of the population in broth or medium. Peptide MIC's can be determined for a variety of micoorganisms under a variety of conditions. Another assay for the biological activity of the peptides is a “fractional inhibitory concentration” (FIC) assay. This assay is especially useful for determining synergistic effects between the peptides of the invention, and between invention peptides and other compounds such as known antibiotics. A FIC assay employs the strategy of a MIC assay with additional variable(s), e.g., known antibiotics. One type of FIC assay is performed in a microwell plate containing microorganisms in broth. Peptides, in a range of dilutions, is added to each well following a patter of one dimension of the microwell plate, and antibiotics, in the other dimension. The FIC is calculated by looking at the impact of an antibiotic on the MIC of the peptide and the reciprocal relationship. […] Preferably, an FIC of less than 0.5 is obtained for synergism. As used herein, FIC can be determined as follows:
(§2) The bacterial strains used for antimicrobial activity assays included E. coli UB1005 (F^−, nalA37, metB1) and its outer membrane deficient mutant DC2 (16), E. coli KF130 (gyrA) (Hooper et al. (1987) Am. J. Med. 82:(Suppl. 4A),12-20), wild tppe strains of S. typhimurium 14028s (Fields et al. (1989) Science 243:1059-1062), S. aureus ATCC25923, S. aureus SAP0017 and R147. Also included was a clinical isolate of S. epidermidis were obtained from Dr. D. Speert, Department of Medicine, University of British Columbia, and P. aeruginosa PAO1 (Hancock and Carey (1979) J. Bacteriol. 140:902-910), H374 and H744 (Poole et al. (1993) J. Bacterial.175:7363-7372.) and E. faecalis ATCC 29212. Antifungal activity was tested using a clinical lab isolate of Candida albicans. All the strains were grown in Mueller Hinton (MH) broth (Difco Laboratories, Detroit, Mich.) at 37° C. unless otherwise indicated. The lipopolysaccharides (LPS) of E. coli UB1005 and P. aeruginosa H103 used for the dansyl-polymyxin B replacement assay were isolated as described by Moore et al. ((1986) Antimicrobial. Agents Chemother. 29:496-500). Polymyxin B, 1-N-phenylnapthylamine (NPN), carbonyl cyanide-m-chlorophenyl hydrazone (CCCP), Re LPS from S. Minnesota R595 (Re mutant) and LPS from E. coli 0111 :B4 were purchased from Sigma Chemicals Co. (St. Louis, Mo.). Dansyl polymyxin B was synthesized as described previously (Moore et al. (1986) Antimicrobial. Agents Chemother. 29:496-500). The lipids 1-pamitoyl-2-oleoyl-sn-glycero-3-phosphocholine (POPC), 1-palmitoyl-2-oleoyl-sn-glycero-3-phosphoglycerol (POPG), 1-palmitoyl-2-oleoyl-sn-glycero-3-phosphoethanolamine (POPE) and phosphatidylglycerol from egg yolk (egg-PG) were purchased from Avanti Polar Lipids Inc. (Alabaster, Ala.). The fluorescent dye 3,3-dipropylthiacarbocyanine (diSC35) was purchased from Molecular Probes (Eugene, Oreg.).
(§3) MIC Assay p The minimum inhibitory concentrations of (MIC) of several invention peptides were determined using methods described elsewhere (Wu and Hancock, (1999) J. Biol Chem. 274:29-35). Cells were grown overnight at 37EC in LB-S (Luria broth without any salt supplement) and diluted one in 10,000 in the same medium to give concentrations of about 10^4 to 10^5 CFU/ml. The broth dilutions were set up in a 96-well microtiter plate by putting 200 μl of LB-S containing the initial concentration of antibiotic or compound in column 1 and 100 Φl of the same medium in columns 2-12. […]

[1] = tested on: Staphylococcus aureus ATCC 25923; assay type: cell-based
Method: as §1, §2, §3

[2] = tested on: E. coli 0111:B4 LPS induced production of TNF-α in RAW macrophages; assay: Reduction of LPS-induced TNF-α in RAW 264.7 macrophages (ELISA); assay type: cell-based, murine; details: peptide 20 μg/ml; LPS 100 ng/ml; RAW 264.7; 6 hours
Method: (§4) The ability of invention peptides to reduce LPS-induced tumor necrosis factor (TNF) production was tested in an in vitro assay. The murine macrophage cell line RAW 264.7 was obtained from American Type Culture Collection (Manassas, Va.) and grown in DMEM medium supplemented with 10% fetal calf serum. The cells were plated at a density of 10^6 cells/well in 24 well plates, incubated overnight, then washed with fresh medium. E. coli 0111 :B4 (100 ng/ml) was added at time 0 to RAW macrophages. Invention peptides […]/m were added at time 0, 30 and 60 minutes and the cells were stimulated for 6 hours. Levels of TNF and interleukin-6 (IL-6) were measured after 6 hours.

[3] = tested on: E. coli 0111:B4 LPS induced production of IL-6 in RAW macrophages; assay: Reduction of LPS-induced IL-6 in RAW 264.7 macrophages (ELISA); assay type: cell-based, murine; details: peptide 20 μg/ml; LPS 100 ng/ml; RAW 264.7; 6 hours
Method: as §4

[4] = Dansyl polymyxin B displacement assay (binding affinity for LPS); parameters: species or system Escherichia coli
Method: To determine whether invention peptides are able to interact with the LPS of Gram-negative bacterial outer membrane, the binding affinity of peptide for LPS was determined using a dansyl polymyxin B displacement assay (Moore et al. (1986) Antimicrobial Agents Chemother. 29:496-500). The assay uses dansyl polymyxin, a cationic probe that is highly fluorescent only when bound and LPS isolated from E. coli. UB1005. […] Maximal displacement of LPS was expressed as a percentage where 100% displacement of dansyl polymyxin B was taken as that observed with polymyxin B.

In the case of `CC(C)[C@@H]1NC(=O)[C@H](CCCNC(=N)N)NC(=O)[C@H](Cc2ccccc2)NC(=O)[C@@H](NC(=O)[C@H](Cc2c[nH]c3ccccc23)NC(=O)[C@H](CCCNC(=N)N)NC(=O)[C@@H](N)CCCNC(=N)N)CSSC[C@@H](C(=O)N[C@@H](CCCNC(=N)N)C(N)=O)NC(=O)[C@H](CCCCN)NC(=O)[C@H](CCCNC(=N)N)NC(=O)[C@H](Cc2ccc(O)cc2)NC(=O)[C@@H]2CSSC[C@H](NC1=O)C(=O)N[C@@H](Cc1ccc(O)cc1)C(=O)N[C@@H](CCCNC(=N)N)C(=O)NCC(=O)N[C@@H](Cc1ccccc1)C(=O)N2` [Polyphemusin I] (HELM PEPTIDE1{R.R.W.C.F.R.V.C.Y.R.G.F.C.Y.R.K.C.R.[am]}$PEPTIDE1,PEPTIDE1,4:R3-17:R3|PEPTIDE1,PEPTIDE1,8:R3-13:R3$$$V2.0; N-terminus and C-terminus assumed), the MIC (Candida albicans) is reported as 1 µg/mL, the MIC [1] is reported as 0.5 µg/mL and the “Inhibition of TNF-α (%)” value [2] is reported as 83 ± 6%. For the same compound, the “Inhibition of IL-6 (%)” value [3] was 84 ± 3%, the Imax ([4]; maximal displacement, 100% = that observed with polymyxin B) was 85% and the IC50 ([4]; peptide concentration reducing bound dansyl polymyxin B (10 μM) by 50% of maximal displacement, read-out: I50) was 4.8 µM.
